Patent publication US9969694B2, “N-(arylalkyl)-N′-pyrazolyl-urea, thiourea, guanidine and cyanoguanidine compounds as TrkA kinase inhibitors” (Array BioPharma Inc., priority 2012, dated 2018)
Where a name gives a salt, the structure may show the parent alone.

The compounds below were run against T1, His-tagged recombinant human TrkA (Homo sapiens, UniProt P04629) (assay: TrkA Kinase Binding Assay (LanthaScreen Eu)). Details: averaged IC50; TR-FRET binding, 60 min, 22° C.; read-out: TrkA Enzyme IC50.
T1 construct: 6HIS tagged cytoplasmic domain from Invitrogen, Catalog No. PV3144; purchased Invitrogen PV3144
How it was run: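 TR-FRET tracer displacement: 5 nM His-tagged TrkA cytoplasmic domain with 4 nM Tracer 236, biotinylated anti-His and Eu-streptavidin in pH 7.5 MOPS buffer, 2% DMSO, 60 min at 22 °C. 665/615 nm emission ratio gave percent of control; IC50 from four-parameter fit.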

T1 sequence (P04629 440-796 limits assumed): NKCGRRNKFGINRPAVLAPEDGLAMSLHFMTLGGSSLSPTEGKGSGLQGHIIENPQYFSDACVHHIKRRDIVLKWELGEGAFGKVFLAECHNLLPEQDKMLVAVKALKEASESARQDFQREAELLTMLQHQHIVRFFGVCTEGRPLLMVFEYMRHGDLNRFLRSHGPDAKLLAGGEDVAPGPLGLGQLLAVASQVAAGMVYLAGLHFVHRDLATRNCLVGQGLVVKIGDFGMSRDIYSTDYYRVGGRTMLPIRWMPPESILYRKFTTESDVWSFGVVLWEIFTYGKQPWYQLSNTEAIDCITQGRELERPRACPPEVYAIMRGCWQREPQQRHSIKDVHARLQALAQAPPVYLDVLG

Compound	IC50
CCOc1ccc(COC)cc1CNC(=O)Nc1c(C)c(-c2cnn(C)c2)nn1-c1ccccc1 [Example 17, 1-(1′,4-dimethyl-1-phenyl-1H,1′H-[3,4′-bipyrazol]-5-yl)-3-(2-ethoxy-5-(methoxymethyl)benzyl)urea]	< 0.1 µM
COCc1ccc(C2CCC2)c(CNC(=O)Nc2c(C)c(-c3ccc(=O)n(C)c3)nn2-c2ccccc2)c1 [Example 9, 1-(2-cyclobutyl-5-(methoxymethyl)benzyl)-3-(4-methyl-3-(1-methyl-6-oxo-1,6-dihydropyridin-3-yl)-1-phenyl-1H-pyrazol-5-yl)urea]	< 0.1 µM
COCc1ccc(OC(F)F)c(CNC(=O)Nc2c(C)c(OC3CC4(C3)CN(C)C4)nn2-c2ccccc2)c1 [Example 108, 1-(2-(difluoromethoxy)-5-(methoxymethyl)benzyl)-3-(4-methyl-3-((2-methyl-2-azaspiro[3.3]heptan-6-yl)oxy)-1-phenyl-1H-pyrazol-5-yl)urea]	< 0.1 µM
COCc1ccc(OC(F)(F)F)c(CNC(=O)Nc2c(C)c(OCC3(F)CCNC3)nn2-c2ccccc2)c1 (centres unmarked) [Example 73, 1-(3-((3-fluoropyrrolidin-3-yl)methoxy)-4-methyl-1-phenyl-1H-pyrazol-5-yl)-3-(5-(methoxymethyl)-2-(trifluoromethoxy)benzyl)urea]	< 0.1 µM
COCc1ccc(OC(F)(F)F)c(CNC(=O)Nc2c(C)c(OC[C@@H]3COCCN3C)nn2-c2ccccc2)c1 [Example 110, (S)-1-(5-(methoxymethyl)-2-(trifluoromethoxy)benzyl)-3-(4-methyl-3-((4-methylmorpholin-3-yl)methoxy)-1-phenyl-1H-pyrazol-5-yl)urea]	< 0.1 µM
COCc1ccc(OC(F)(F)F)c(CNC(=O)Nc2c(C)c(Oc3ccccc3)nn2-c2ccccc2)c1 [Example 77, 1-(5-(methoxymethyl)-2-(trifluoromethoxy)benzyl)-3-(4-methyl-3-phenoxy-1-phenyl-1H-pyrazol-5-yl)urea]	0.1 to 1 µM
COCc1ccc(OC(F)(F)F)c(CNC(=O)Nc2c(C)c(-c3cnn(C)c3)nn2-c2ccccc2)c1 [Example 22, 1-(1′,4-dimethyl-1-phenyl-1H,1′H-[3,4′-bipyrazol]-5-yl)-3-(5-(methoxymethyl)-2-(trifluoromethoxy)benzyl)urea]	0.1 to 1 µM
COCc1cccc(C(NC(=O)Nc2c(C)c(-c3ccc(=O)n(C)c3)nn2-c2ccccc2)C2CC2)c1 (centres unmarked) [Example 26, 1-(cyclopropyl(3-(methoxymethyl)phenyl)methyl)-3-(4-methyl-3-(1-methyl-6-oxo-1,6-dihydropyridin-3-yl)-1-phenyl-1H-pyrazol-5-yl)urea]	0.1 to 1 µM
CCSc1ccc(C2CCC2)c(CNC(=O)Nc2c(C)c(-c3cnn(C)c3)nn2-c2ccccc2)c1 [Example 128, 1-(2-cyclobutyl-5-(ethylthio)benzyl)-3-(1′,4-dimethyl-1-phenyl-1H,1′H-[3,4′-bipyrazol]-5-yl)urea]	0.1 to 1 µM
COCc1ccc(-c2ccccc2)c(CNC(=O)Nc2c(C)c(-c3cnn(C)c3)nn2-c2ccccc2)c1 [Example 116, 1-(1′,4-dimethyl-1-phenyl-1H,1′H-[3,4′-bipyrazol]-5-yl)-3-((4-(methoxymethyl)-[1,1′-biphenyl]-2-yl)methyl)urea]	< 0.1 µM
COCc1ccc(C2CC2)c(CNC(=O)Nc2c(C)c(-c3cnc(C)nc3)nn2-c2ccccc2)c1 [Example 1, 1-(2-cyclopropyl-5-(methoxymethyl)benzyl)-3-(4-methyl-3-(2-methylpyrimidin-5-yl)-1-phenyl-1H-pyrazol-5-yl)urea]	< 0.1 µM
COCc1ccc(OC(F)(F)F)c(CNC(=O)Nc2c(C)c(C3CCNCC3)nn2-c2ccccc2)c1 [Example 66, 1-(5-(methoxymethyl)-2-(trifluoromethoxy)benzyl)-3-(4-methyl-1-phenyl-3-(piperidin-4-yl)-1H-pyrazol-5-yl)urea]	< 0.1 µM
COCc1ccc(C2(F)COC2)c(CNC(=O)Nc2c(C)c(-c3cnn(C)c3)nn2-c2ccccc2)c1 [Example 31, 1-(1′,4-dimethyl-1-phenyl-1H,1′H-[3,4′-bipyrazol]-5-yl)-3-(2-(3-fluorooxetan-3-yl)-5-(methoxymethyl)benzyl)urea]	< 0.1 µM
O=C(Nc1c2c(nn1-c1ccccc1)CCC2)NC(Cc1ccccc1Cl)c1ccccc1 (centres unmarked) [Example 45, 1-(2-(2-chlorophenyl)-1-phenylethyl)-3-(2-phenyl-2,4,5,6-tetrahydrocyclopenta[c]pyrazol-3-yl)urea]	0.1 to 1 µM
COCc1ccc(C2CCC2)c(CNC(=O)Nc2c(C)c(-c3cnn(C)c3)nn2-c2ccccc2)c1 [Example 11, 1-(2-cyclobutyl-5-(methoxymethyl)benzyl)-3-(1′,4-dimethyl-1-phenyl-1H,1′H-[3,4′-bipyrazol]-5-yl)urea]	< 0.1 µM
COCc1ccc(C2CCC2)c(CNC(=O)Nc2c(C)c(OC[C@H](O)CO)nn2-c2ccccc2)c1 [Example 125, (R)-1-(2-cyclobutyl-5-(methoxymethyl)benzyl)-3-(3-(2,3-dihydroxypropoxy)-4-methyl-1-phenyl-1H-pyrazol-5-yl)urea]	< 0.1 µM

Compound	IC50
COCc1cc(CNC(=O)Nc2c(C)c(-c3cnn(C)c3)nn2-c2ccccc2)c(C2CCC2)cc1F [Example 117, 1-(2-cyclobutyl-4-fluoro-5-(methoxymethyl)benzyl)-3-(1′,4-dimethyl-1-phenyl-1H,1′H-[3,4′-bipyrazol]-5-yl)urea]	< 0.1 µM
COCc1ccc(OC(F)(F)F)c(CNC(=O)Nc2c(C)c(OCC3CCN(C)C3)nn2-c2ccccc2)c1 (centres unmarked) [Example 106, 1-(5-(methoxymethyl)-2-(trifluoromethoxy)benzyl)-3-(4-methyl-3-((1-methylpyrrolidin-3-yl)methoxy)-1-phenyl-1H-pyrazol-5-yl)urea hydrochloride]	< 0.1 µM
COCc1ccc(OCC(F)(F)F)c(CNC(=O)Nc2c(C)c(-c3cnc(OC)nc3)nn2-c2ccccc2)c1 [Example 69, 1-(5-(methoxymethyl)-2-(2,2,2-trifluoroethoxy)benzyl)-3-(3-(2-methoxypyrimidin-5-yl)-4-methyl-1-phenyl-1H-pyrazol-5-yl)urea]	< 0.1 µM
COCc1ccc(C2CC2)c(CNC(=O)Nc2c(C)c(-c3ccc(C)nc3)nn2-c2ccccc2)c1 [Example 3, 1-(2-cyclopropyl-5-(methoxymethyl)benzyl)-3-(4-methyl-3-(6-methylpyridin-3-yl)-1-phenyl-1H-pyrazol-5-yl)urea]	< 0.1 µM
COCc1ccc(C2(F)COC2)c(CNC(=O)Nc2c(C)c(-c3ccc(C)nc3)nn2-c2ccccc2)c1 [Example 32, 1-(2-(3-fluorooxetan-3-yl)-5-(methoxymethyl)benzyl)-3-(4-methyl-3-(6-methylpyridin-3-yl)-1-phenyl-1H-pyrazol-5-yl)urea]	0.1 to 1 µM
COCc1ccc(C2(OC)CCC2)c(CNC(=O)Nc2c(C)c(-c3ccc(C)nc3)nn2-c2ccccc2)c1 [Example 24, 1-(2-(1-methoxycyclobutyl)-5-(methoxymethyl)benzyl)-3-(4-methyl-3-(6-methylpyridin-3-yl)-1-phenyl-1H-pyrazol-5-yl)urea]	0.1 to 1 µM
COCc1ccc(C2CC2(F)F)c(CNC(=O)Nc2c(C)c(-c3cnn(C)c3)nn2-c2ccccc2)c1 (centres unmarked) [Example 25, 1-(2-(2,2-difluorocyclopropyl)-5-(methoxymethyl)benzyl)-3-(1′,4-dimethyl-1-phenyl-1H,1′H-[3,4′-bipyrazol]-5-yl)urea 2,2,2-trifluoroacetate]	< 0.1 µM
COCc1ccc(OC(F)(F)F)c(CNC(=O)Nc2c(C)c(OCC3(F)CCN(C)C3)nn2-c2ccccc2)c1 (centres unmarked) [Example 76, 1-(3-((3-fluoro-1-methylpyrrolidin-3-yl)methoxy)-4-methyl-1-phenyl-1H-pyrazol-5-yl)-3-(5-(methoxymethyl)-2-(trifluoromethoxy)benzyl)urea]	< 0.1 µM
COCc1ccc(CNCC(F)(F)F)c(CNC(=O)Nc2c(C)c(-c3cnn(C)c3)nn2-c2ccccc2)c1 [Example 119, 1-(1′,4-dimethyl-1-phenyl-1H,1′H-[3,4′-bipyrazol]-5-yl)-3-(5-(methoxymethyl)-2-(((2,2,2-trifluoroethyl)amino)methyl)benzyl)urea]	0.1 to 1 µM
COCc1ccc(OC(F)(F)F)c(CNC(=O)Nc2c(C)c(O[C@H]3C[C@H](N)C3)nn2-c2ccccc2)c1 [Example 100, 1-(3-((1r,3r)-3-aminocyclobutoxy)-4-methyl-1-phenyl-1H-pyrazol-5-yl)-3-(5-(methoxymethyl)-2-(trifluoromethoxy)benzyl)urea]	< 0.1 µM
COCc1ccc(OC(F)(F)F)c(CNC(=O)Nc2c(C)c(OC[C@H]3COCCN3C)nn2-c2ccccc2)c1 [Example 113]	< 0.1 µM
COCc1ccc(C2CC2)c(CNC(=O)Nc2c(C)c(-c3cnn(C)c3)nn2-c2ccccc2)c1 [Example 6, 1-(2-cyclopropyl-5-(methoxymethyl)benzyl)-3-(1′,4-dimethyl-1-phenyl-1H,1′H-[3,4′-bipyrazol]-5-yl)urea]	< 0.1 µM
COCc1ccc(C2CCC2)c(CNC(=O)Nc2c3c(nn2-c2ccccc2)CS(=O)(=O)C3)c1 [Example 121, 1-(2-cyclobutyl-5-(methoxymethyl)benzyl)-3-(5,5-dioxido-2-phenyl-4,6-dihydro-2H-thieno[3,4-c]pyrazol-3-yl)urea]	< 0.1 µM
COCc1ccc(OC(F)F)c(CNC(=O)Nc2c(C)c(OCC3CCNCC3)nn2-c2ccccc2)c1 [Example 105, 1-(2-(difluoromethoxy)-5-(methoxymethyl)benzyl)-3-(4-methyl-1-phenyl-3-(piperidin-4-ylmethoxy)-1H-pyrazol-5-yl)urea]	< 0.1 µM
O=C(Nc1c2c(nn1-c1ccccc1)CCC2)NC(Cc1ccccc1)Cc1ccccc1 [Example 42, 1-(1,3-diphenylpropan-2-yl)-3-(2-phenyl-2,4,5,6-tetrahydrocyclopenta[c]pyrazol-3-yl)urea]	< 0.1 µM
COCc1ccc(OC(F)(F)F)c(CNC(=O)Nc2c(C)c(O[C@@H]3CCNC[C@H]3F)nn2-c2ccccc2)c1 [Example 95, 1-(3-(((3R,4R)-3-fluoropiperidin-4-yl)oxy)-4-methyl-1-phenyl-1H-pyrazol-5-yl)-3-(5-(methoxymethyl)-2-(trifluoromethoxy)benzyl)urea]	< 0.1 µM
